Measurements as given in patent US8835354B2, “Composition for controlling plant diseases and method for controlling plant diseases” (Sumitomo Chemical Company, Limited, priority 2008, dated 2014).

How the values were obtained:
Format in all cases: in vivo
[1] = test system: Pythium irregulare, pathogen of cucumber damping-off; experiment: Cucumber damping-off seed treatment test with mefenoxam (Test Example 5); details: seventh day
Description: (§1) Control value=100(A−B)/A “Equation 1”
(§2) A: Incidence of disease of plant in untreated area
(§3) B: Incidence of disease of plant in treated area
(§4) Generally, the control value expected for the case where the given two kinds of active ingredient compounds are mixed and used for the treatment, the so-called control value expectation is calculated from the following Colby's calculating equation. E=X+Y−(X×Y)/100 “Equation 2”
(§5) X: Control value (%) when active ingredient compound A is used for treatment in M g per hectare or in M g per 100 kg of seeds
(§6) Y: Control value (%) when active ingredient compound B is used for treatment in N g per hectare or in N g per 100 kg of seeds
(§7) E: Control value (%) expected for the case where active ingredient compound A in M g per hectare or in M g per 100 kg of seeds and active ingredient compound B in N g per hectare or in N g per 100 kg of seeds are mixed and used for treatment (hereinbelow referred to as “control value expectation”) “Synergetic effect”=(Actual control value)×100/(Control value expectation) Incidence of disease=(Number of no budding seeds)×100/(Number of total disseminated seeds) “Equation 3”
(§8) An acetone solution of compound (1b) and an acetone solution of mefenoxam were mixed so as to prepare mixed liquids containing compound (1b) and mefenoxam in predetermined concentration. These mixed liquids were adhered on the surface of cucumber (Sagamihanjiro) seeds so as to obtain treated seeds. […] They were allowed to grow in a greenhouse while irrigated and the number of non-budding seeds was checked on the seventh day after the dissemination and the incidence of disease was calculated by Equation 3. The control value was calculated by Equation 1 based on the incidence of disease. In order to calculate the control value, the incidence of disease was also determined in the case in which the plants had not been treated with the agent. […]

[2] = test system: Pythium irregulare, pathogen of cucumber damping-off; experiment: Cucumber damping-off seed treatment test with metalaxyl (Test Example 4); details: seventh day
Description: as §1, §2, §3, §4, §5, §6, §7
as §8, with “metalaxyl” for “mefenoxam”

[3] = test system: Rhizoctonia solani, pathogen of cucumber damping-off; experiment: Cucumber damping-off seed treatment test (Test Example 1); details: seventh day
From the text: An acetone solution of compound (1b) and an acetone solution of tolclofos-methyl were mixed so as to prepare mixed liquids containing compound (1b) and tolclofos-methyl in predetermined concentration. These mixed liquids were used for smear treatment of cucumber (Sagamihanjiro) seeds using a rotary seed treatment machine (seed dresser, produced by Hans-Ulrich Hege GmbH) so as to obtain treated seeds. The treated seeds were left untouched overnight and then disseminated on the soil which filled a plastic pot and covered with the soil containing Rhizoctonia solani, pathogen of cucumber damping-off, which had been cultured on a bran medium. They were allowed to grow in a greenhouse while irrigated and the number of non-budding seeds was checked on the seventh day after the dissemination and the incidence of disease was calculated by Equation 3. The control value was calculated by Equation 1 based on the incidence of disease. The incidence of disease was also checked in the case in which the plants had not been treated with the agent in order to calculate the control value. […]
Generally, the control value expected for the case where the given two kinds of active ingredient compounds are mixed and used for the treatment, the so-called control value expectation is calculated from the following Colby's calculating equation. […]

[4] = test system: Sclerotinia homeocarpa, pathogen of dollar spot of turfgrass; experiment: Turfgrass dollar spot foliage application test (Test Example 2); details: 14 days
Description: as §1, §2, §3, §4, §5, §6, §7
A plastic pot was filled with sandy soil. Turfgrass (bentgrass penncross) was disseminated and allowed to grow in a green house for 3 weeks. A wettable powder of compound (1b) and a wettable powder of tolclofos-methyl (Grancer Wettable Powder manufactured by Nihon Green & Garden Corporation) were respectively diluted with water and then tank-mixed so as to prepare tank-mixed liquids containing compound (1b) and tolclofos-methyl in predetermined concentration. The tank-mixed liquids were subjected to foliage application such that they could be sufficiently adhered to the leaves of the aforementioned turfgrass. Thereafter, the plants were air-dried. After the plants were air-dried, Sclerotinia homeocarpa, pathogen of dollar spot of turfgrass, which had been cultured on a bran medium was sprayed on the plants to be treated from above. Then, the plants were placed in a greenhouse at 19° C. to 23° C. under high humidity for 14 days, and thereafter control effect was checked. The diseased area ratio of the pot plants on which the agents had been sprayed was determined as the incidence of disease at the time of checking and the control value calculated by Equation 1 based on the incidence of disease thus determined. In order to calculate the control value, the incidence of disease was also determined in the case in which the plants had not been treated with the agent.
As a comparison, the respective wettable powders described above were diluted with water in predetermined concentration so as to prepare a compound (1b) liquid and a tolclofos-methyl liquid respectively and they were subjected to similar tests.

[5] = test system: Rhizoctonia solani, pathogen of brown patch of turfgrass; experiment: Turfgrass brown patch foliage application test (Test Example 3); details: 14 days
Description: as §1, §2, §3, §4, §5, §6, §7
A plastic pot was filled with sandy soil. Turfgrass (bentgrass penncross) was disseminated and allowed to grow in a green house for 3 weeks. A wettable powder of compound (1b) and a wettable powder of tolclofos-methyl (Grancer Wettable Powder manufactured by Nihon Green & Garden Corporation) were respectively diluted with water and then tank-mixed so as to prepare tank-mixed liquids containing compound (1b) and tolclofos-methyl in predetermined concentration. […] The diseased area ratio of the pot plants on which the agents had been sprayed was determined as the incidence of disease at the time of checking and the control value was calculated by Equation 1 based on the incidence of disease thus determined. In order to calculate the control value, the incidence of disease was also determined in the case in which the plants had not been treated with the agent. […]

[6] = compound (1b) 0.005 g/100 kg-seed alone
[7] = tolclofos-methyl 37.5 g/ha alone

`COCC(=O)N(c1c(C)cccc1C)[C@H](C)C(=O)OC` [Mefenoxam, mefenoxam] showed an Actual control value ([1]; mefenoxam 0.00125 g/100 kg-seed alone) of 25% and an Actual control value ([1]; mefenoxam 0.005 g/100 kg-seed alone) of 50%.

With `CNC(=O)C(OC)c1ccccc1COc1cc(C)ccc1C` (racemic) [(1b)] the Actual control value [1, 6] was 25%, the Actual control value [2, 6] was 25% and the Actual control value ([3]; compound (1b) 1 g/100 kg-seed alone) was 30%. For the same compound, the “Actual control value (%)” value ([4]; compound (1b) 150 g/ha alone) was 67.2%, the Actual control value ([5]; compound (1b) 9.4 g/ha alone) was 30% and the Actual control value ([5]; compound (1b) 37.5 g/ha alone) was 45%.

In the case of `COP(=S)(OC)Oc1c(Cl)cc(C)cc1Cl` [Tolclofos-methyl, tolclofos-methyl], the Actual control value ([3]; tolclofos-methyl 10 g/100 kg-seed alone) is reported as 57%, the “Actual control value (%)” value [4, 7] is reported as 12.4% and the “Actual control value (%)” value ([4]; tolclofos-methyl 150 g/ha alone) is reported as 43.7%. The “Actual control value (%)” value ([4]; tolclofos-methyl 600 g/ha alone) was 59.3% and the Actual control value [5, 7] was 30%.

`COCC(=O)N(c1c(C)cccc1C)C(C)C(=O)OC` (stereo not drawn) [Metalaxyl, metalaxyl] showed an Actual control value ([2]; metalaxyl 0.00125 g/100 kg-seed alone) of 25% and an Actual control value ([2]; metalaxyl 0.0025 g/100 kg-seed alone) of 12.5%.
